{
  "source": "patent US4150049A",
  "about": "“Esters of aromatic sulfonic acids” (The Government of the United States, priority 1977, dated 1979)",
  "key": {"Thrombin (human)": {"biological_target": "T1, Thrombin (human) (Homo sapiens, UniProt P00734)", "T1 construct": "made in house", "experiment": "Dixon plot competitive inhibition of hydrolysis of benzyloxy-lysine-nitrophenyl ester by human thrombin", "format": "biochemical", "details": "Dixon plots, pH 6.0; Ki (M) x 10^5; read-out: Inhibition constant Ki (M) x 10^5, Thrombin (human)", "method": "(§1) In accordance with the present invention, nitrophenyl m- and p-amidinophenylmethanesulfonate were prepared, and these compounds were examined for their properties related to inhibition and inactivation of specific enzymes. With regard to the enzymes employed, bovine β-trypsin and thrombin were chromatographically purified by known procedures. Human plasminogen was purified from Cohn fraction III and activated with streptokinase. Human plasma kallikrein was purified about 1000-fold from activated Cohn fraction IV, by affinity chromatography. Human thrombin was prepared by the method of Miller and Copeland. Bovine chymotrypsin three times crystallized was also employed, along with streptokinase.\n(§2) Enzyme concentrations were determined by titration with nitrophenyl p-guanidinobenzoate in the case of trypsin, plasmin, and thrombin, whereas chymotrypsin molarity was based on weight. Kallikrein concentration is expressed in enzyme units as measured in a pH-state by esterase action on 0.02 M tos-Arg-OMe in 0.06 M KCl at pH 7.85; one unit corresponds to the hydrolysis of 1 μmole of ester per minute under these conditions.\n(§3) Optical density change at 340 nm was measured with double beam operation as described above. […]"}, "Thrombin (bovine)": {"biological_target": "T2, Thrombin (bovine) (Bos taurus, UniProt P00735)", "T2 construct": "made in house", "experiment": "Dixon plot competitive inhibition of hydrolysis of benzyloxy-lysine-nitrophenyl ester by bovine thrombin", "format": "biochemical", "method": "as §1, §2, §3"}, "α-Chymotrypsin": {"biological_target": "T3, α-Chymotrypsin (Bos taurus, UniProt P00766)", "T3 construct": "α-Chymotrypsin", "experiment": "Dixon plot competitive inhibition of hydrolysis of benzyloxy-lysine-nitrophenyl ester by α-chymotrypsin", "format": "biochemical, bovine", "details": "Dixon plots, pH 6.0; Ki (M) x 10^5; read-out: Inhibition constant Ki (M) x 10^5, α-Chymotrypsin", "method": "as §1, §2, §3"}, "β-Trypsin": {"biological_target": "T4, β-Trypsin (Bos taurus, UniProt P00760)", "T4 construct": "bovine β-trypsin; made in house", "T4 sequence (P00760 24-246)": "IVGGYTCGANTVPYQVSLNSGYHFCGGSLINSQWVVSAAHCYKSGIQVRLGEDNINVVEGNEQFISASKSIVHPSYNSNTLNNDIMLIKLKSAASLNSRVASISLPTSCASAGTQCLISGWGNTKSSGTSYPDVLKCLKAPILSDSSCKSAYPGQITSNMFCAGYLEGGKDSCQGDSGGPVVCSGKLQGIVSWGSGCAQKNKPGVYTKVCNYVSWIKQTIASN", "experiment": "Dixon plot competitive inhibition of hydrolysis of benzyloxy-lysine-nitrophenyl ester by β-trypsin", "format": "biochemical, bovine", "details": "Dixon plots, pH 6.0; Ki (M) x 10^5; read-out: Inhibition constant Ki (M) x 10^5, β-Trypsin", "method": "as §1, §2, §3"}, "[1]": {"biological_target": "T5, Plasma kallikrein (human) (Homo sapiens, UniProt P03952)", "T5 construct": "from tissue", "T5 sequence (P03952 391-638 limits assumed)": "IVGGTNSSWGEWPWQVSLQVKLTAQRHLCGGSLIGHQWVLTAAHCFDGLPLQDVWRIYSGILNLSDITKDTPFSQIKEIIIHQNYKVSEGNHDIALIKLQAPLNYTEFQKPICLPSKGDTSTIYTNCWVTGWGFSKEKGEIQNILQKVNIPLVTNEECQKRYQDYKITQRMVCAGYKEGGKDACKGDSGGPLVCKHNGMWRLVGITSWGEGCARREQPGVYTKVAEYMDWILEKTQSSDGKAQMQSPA", "T5 sequence (P03952 20-390 limits assumed)": "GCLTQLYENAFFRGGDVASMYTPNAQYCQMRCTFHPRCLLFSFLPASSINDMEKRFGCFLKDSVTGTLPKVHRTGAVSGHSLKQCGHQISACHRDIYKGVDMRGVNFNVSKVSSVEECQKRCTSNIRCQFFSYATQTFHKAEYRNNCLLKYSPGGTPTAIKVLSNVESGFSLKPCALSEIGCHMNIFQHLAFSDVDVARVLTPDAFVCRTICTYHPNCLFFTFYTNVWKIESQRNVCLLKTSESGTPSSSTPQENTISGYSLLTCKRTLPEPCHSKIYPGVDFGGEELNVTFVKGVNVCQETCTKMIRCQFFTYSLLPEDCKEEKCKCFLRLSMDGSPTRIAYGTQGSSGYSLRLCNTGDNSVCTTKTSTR", "experiment": "Dixon plot competitive inhibition of esterase action of human plasma kallikrein", "format": "biochemical", "details": "Dixon plots, pH 6.0; Ki (M) x 10^5; read-out: Inhibition constant Ki (M) x 10^5, Plasma kallikrein (human)", "method": "as §1, §2, §3"}, "Plasmin (human)": {"biological_target": "T6, Plasmin (human) (Homo sapiens, UniProt P00747)", "T6 construct": "from tissue; host or cells: Cohn fraction III (human plasma)", "T6 sequence (P00747 581-810 limits assumed)": "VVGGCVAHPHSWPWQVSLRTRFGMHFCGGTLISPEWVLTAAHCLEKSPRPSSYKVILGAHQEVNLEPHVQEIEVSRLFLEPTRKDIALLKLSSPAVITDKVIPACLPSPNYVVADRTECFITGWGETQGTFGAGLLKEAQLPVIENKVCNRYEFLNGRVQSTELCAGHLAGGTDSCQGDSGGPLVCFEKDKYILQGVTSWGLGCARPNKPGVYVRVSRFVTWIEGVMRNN", "T6 sequence (P00747 97-580 limits assumed)": "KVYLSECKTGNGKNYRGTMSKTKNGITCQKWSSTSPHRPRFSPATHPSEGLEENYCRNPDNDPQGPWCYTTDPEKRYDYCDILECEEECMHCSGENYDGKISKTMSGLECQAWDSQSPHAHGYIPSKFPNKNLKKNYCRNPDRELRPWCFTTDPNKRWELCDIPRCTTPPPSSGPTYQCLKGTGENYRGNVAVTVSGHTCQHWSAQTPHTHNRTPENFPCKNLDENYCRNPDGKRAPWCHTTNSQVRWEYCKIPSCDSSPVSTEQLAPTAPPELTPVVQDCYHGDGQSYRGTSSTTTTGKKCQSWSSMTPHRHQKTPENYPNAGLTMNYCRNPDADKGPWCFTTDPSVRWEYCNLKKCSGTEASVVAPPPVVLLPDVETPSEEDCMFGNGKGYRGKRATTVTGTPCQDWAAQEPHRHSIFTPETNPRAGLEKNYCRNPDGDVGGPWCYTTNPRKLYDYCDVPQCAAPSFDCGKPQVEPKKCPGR", "experiment": "Dixon plot competitive inhibition of esterase action of human plasmin", "format": "biochemical", "details": "Dixon plots, pH 6.0; Ki (M) x 10^5; read-out: Inhibition constant Ki (M) x 10^5, Plasmin (human)", "method": "as §1, §2, §3"}, "thrombin": {"biological_target": "thrombin (Bos taurus, UniProt P00735)", "experiment": "presteady state kinetics of nitrophenol production by thrombin", "format": "biochemical, bovine", "method": "as §1\nThe action of thrombin on nitrophenyl p-amidinophenylmethanesulfonate was also studied in 0.05 M sodium veronal buffer, pH 7.4 (with 0.02 M Ca^2+ + at a series of reagent concentrations to determine the possible formation of an intermediate complex as a step in the inactivation process. The apparatus was the same as above and presteady state nitrophenol production was analyzed for the calculation of k2 and KS. Concentrations of the p-isomer were 0.5, 1.0, 2.0, 2.5, 3.75, and 5.0×10^-4 M. One of the progress curves is shown in FIG. 1, with this graph representing the action of thrombin (3×10^-6 M) on the p-isomer, pH 8.3, 25° C., with stoichiometric nitrophenol release accompanying inactivation. Although the full chromogeneity of nitrophenol is not reached at this pH, the final value in each case was equal to that obtained in control titrations with NPGB."}},
  "data": [
    {"compound": "N=C(N)c1cccc(CS(=O)(=O)Oc2ccc([N+](=O)[O-])cc2)c1", "note": "[m-isomer]", "values": [
      {"measurement": "Ki", "setting": "Thrombin (human)", "result": "5.3e-05", "unit": "M"},
      {"measurement": "Ki", "setting": "Thrombin (bovine)", "result": 415, "unit": "µM"},
      {"measurement": "Ki", "setting": "α-Chymotrypsin", "result": "1.3e-05", "unit": "M"},
      {"measurement": "Ki", "setting": "β-Trypsin", "result": "9e-06", "unit": "M"},
      {"measurement": "Ki", "setting": "[1]", "result": "1.9e-05", "unit": "M"},
      {"measurement": "Ki", "setting": "Plasmin (human)", "result": "4.2e-05", "unit": "M"}
    ]},
    {"compound": "N=C(N)c1ccc(CS(=O)(=O)Oc2ccc([N+](=O)[O-])cc2)cc1", "note": "[p-isomer]", "values": [
      {"measurement": "Ki", "setting": "α-Chymotrypsin", "result": "3.6e-05", "unit": "M"},
      {"measurement": "Kd", "setting": "thrombin", "result": 120, "unit": "µM"},
      {"measurement": "Ki", "setting": "thrombin", "result": 120, "unit": "µM"},
      {"measurement": "kinact", "setting": "thrombin; presteady state kinetics, pH 7.4, read-out: rate constant for inactive enzyme formation, k2 (converted)", "result": 0.0193, "unit": "s⁻¹"},
      {"measurement": "Ki", "setting": "β-Trypsin", "result": "7e-05", "unit": "M"},
      {"measurement": "Ki", "setting": "[1]", "result": "4.7e-05", "unit": "M"},
      {"measurement": "Ki", "setting": "Plasmin (human)", "result": 0.0005, "unit": "M"}
    ]}
  ]
}
